Experimental data as given in US20160244718A1, “REPROGRAMMING OF PLURIPOTENT STEM CELLS FOR IMPROVED CONTROL OF THEIR DIFFERENTIATION PATHWAYS” (ETH ZURICH, priority 2013, published 2016).

System: pPSCs (cESCs d7) and PSCs (WT ESCs)
Experiment: Cardiogenic differentiation induced by icariin, Real-Time PCR of cardiogenic markers
Format: cell-based, mouse
Conditions: 12 days stimulation with icariin (d7 to d7+12), RNA isolated every 4 days, normalized to Gapdh; pPSCs compared with PSCs
Description: Total RNA was isolated from ˜1×10^6 cells per sample using the RNeasy Plus Mini Kit (Qiagen, Hombrechtikon, Switzerland) with RNase-free DNase treatment (Qiagen) following the manufacturer's protocol. For reverse transcription (RT) 2 μg total RNA was reverse transcribed into cDNA in a reaction volume of 20 μl using the iScript™ Advanced cDNA Synthesis Kit (Bio-Rad). Each RT reaction mix contained 4 μl 5× iScript advanced reaction mix and 1 μl iScript advanced reverse transcriptase. The 20 μl reactions were incubated at 42° C. for 30 min, at 85° C. for 5 min, and then held at 4° C. Real-Time PCR reactions were performed on the resulting cDNA using the CFX Connect™ Real-Time PCR Detection System (Bio-Rad), SsoAdvanced™ SYBR® Green Supermix (Bio-Rad) and Hard-Shell® Low-Profile Thin-Wall 96-Well Skirted PCR Plates (Bio-Rad). Briefly, following the RT step, 5 μl of the 100fold-diluted RT reaction was combined with 15 μl mastermix (2× SsoAdvanced™ SYBR® Green Supermix, forward primer, reverse primer and nuclease-free water) in a 20 μl final volume. PCR reactions were incubated at 95° C. for 3 min, followed by 39 cycles of 95° C. for 10 s and 62° C. for 30 s; and were run as duplicates of two independent experiments. […] Results were analyzed using CFX Manager™ software (Bio-Rad) and mRNA expression levels relative to Gapdh were calculated based on the AACt method. […]

How did the “mRNA expression of all tested cardiogenic markers” value turn out when `COc1ccc(-c2oc3c(CC=C(C)C)c(O[C@@H]4O[C@H](CO)[C@@H](O)[C@H](O)[C@H]4O)cc(O)c3c(=O)c2O[C@@H]2O[C@@H](C)[C@H](O)[C@@H](O)[C@H]2O)cc1` [icariin] was run?
Its value is “induced higher in pPSCs than in PSCs”.
